From article PMC10905675, “INX-315, a Selective CDK2 Inhibitor, Induces Cell Cycle Arrest and Senescence in Solid Tumors” (Cancer Discovery, 2023)

Assays:
Assay in all cases: SelectScreen ZLYTE
Type in all cases: biochemical
Details in all cases: INX-0315 at 100nM
AMPK (A2/B2/G3) = biological target: T1, AMPK (A2/B2/G3) (Homo sapiens, UniProt P54646)
T1 construct: purchased Thermo Fisher Scientific SelectScreen (plus Nanosyn / Reaction Biology for CDK/cyclin lines)
Summary of the method: (§1)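 A single-dose pass at 100 nmol/L INX-315 in 1% DMSO came first. Curves of 10 points from 1 µmol/L to 0.0495 nmol/L followed, using standard predetermined assay settings.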

AXL = biological target: T2, AXL (Homo sapiens, UniProt P30530)
T2 construct: purchased Thermo Fisher Scientific SelectScreen (plus Nanosyn / Reaction Biology for CDK/cyclin lines)
Summary of the method: as §1

BRSK1 (SAD1) = biological target: T3, BRSK1 (SAD1) (Homo sapiens, UniProt Q8TDC3)
T3 construct: purchased Thermo Fisher Scientific SelectScreen (plus Nanosyn / Reaction Biology for CDK/cyclin lines)
Summary of the method: as §1

CAMK1D (CaMKI delta) = biological target: T4, CAMK1D (CaMKI delta) (Homo sapiens, UniProt Q8IU85)
T4 construct: purchased Thermo Fisher Scientific SelectScreen (plus Nanosyn / Reaction Biology for CDK/cyclin lines)
T4 sequence (Q8IU85 whole entry): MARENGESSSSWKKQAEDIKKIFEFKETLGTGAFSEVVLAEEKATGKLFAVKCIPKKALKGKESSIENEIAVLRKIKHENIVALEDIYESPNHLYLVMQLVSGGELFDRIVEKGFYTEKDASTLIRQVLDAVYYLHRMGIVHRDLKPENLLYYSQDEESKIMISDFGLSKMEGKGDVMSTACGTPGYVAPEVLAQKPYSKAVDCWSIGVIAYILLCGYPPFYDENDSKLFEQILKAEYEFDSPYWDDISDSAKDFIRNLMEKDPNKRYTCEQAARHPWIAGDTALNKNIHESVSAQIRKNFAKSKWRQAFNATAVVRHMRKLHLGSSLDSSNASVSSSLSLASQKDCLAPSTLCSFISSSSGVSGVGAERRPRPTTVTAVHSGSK
Summary of the method: as §1

CAMK4 (CaMKIV) = biological target: T5, CAMK4 (CaMKIV) (Homo sapiens, UniProt Q16566)
T5 construct: purchased Thermo Fisher Scientific SelectScreen (plus Nanosyn / Reaction Biology for CDK/cyclin lines)
Summary of the method: as §1

CLK1 = biological target: T6, CLK1 (Homo sapiens, UniProt P49759)
T6 construct: purchased Thermo Fisher Scientific SelectScreen (plus Nanosyn / Reaction Biology for CDK/cyclin lines)
Summary of the method: as §1

CLK2 = biological target: T7, CLK2 (Homo sapiens, UniProt P49760)
T7 construct: purchased Thermo Fisher Scientific SelectScreen (plus Nanosyn / Reaction Biology for CDK/cyclin lines)
Summary of the method: as §1

CSNK2A1 (CK2 alpha 1) = biological target: T8, CSNK2A1 (CK2 alpha 1) (Homo sapiens, UniProt P68400)
T8 construct: purchased Thermo Fisher Scientific SelectScreen (plus Nanosyn / Reaction Biology for CDK/cyclin lines)
Summary of the method: as §1

EGFR (ErbB1) G719C = biological target: T9, EGFR (ErbB1) G719C (Homo sapiens, UniProt P00533, G719C)
T9 construct: purchased Thermo Fisher Scientific SelectScreen (plus Nanosyn / Reaction Biology for CDK/cyclin lines)
Summary of the method: as §1

FGFR3 = biological target: T10, FGFR3 (Homo sapiens, UniProt P22607)
T10 construct: purchased Thermo Fisher Scientific SelectScreen (plus Nanosyn / Reaction Biology for CDK/cyclin lines)
Summary of the method: as §1

FGFR3 V555M = biological target: T11, FGFR3 V555M (Homo sapiens, UniProt P22607, V555M)
T11 construct: purchased Thermo Fisher Scientific SelectScreen (plus Nanosyn / Reaction Biology for CDK/cyclin lines)
Summary of the method: as §1

FLT3 D835Y = biological target: T12, FLT3 D835Y (Homo sapiens, UniProt P36888, D835Y)
T12 construct: purchased Thermo Fisher Scientific SelectScreen (plus Nanosyn / Reaction Biology for CDK/cyclin lines)
Summary of the method: as §1

GRK6 = biological target: T13, GRK6 (Homo sapiens, UniProt P43250)
T13 construct: purchased Thermo Fisher Scientific SelectScreen (plus Nanosyn / Reaction Biology for CDK/cyclin lines)
Summary of the method: as §1

GSK3A (GSK3 alpha) = biological target: T14, GSK3A (GSK3 alpha) (Homo sapiens, UniProt P49840)
T14 construct: purchased Thermo Fisher Scientific SelectScreen (plus Nanosyn / Reaction Biology for CDK/cyclin lines)
Summary of the method: as §1

INSRR (IRR) = biological target: T15, INSRR (IRR) (Homo sapiens, UniProt P14616)
T15 construct: purchased Thermo Fisher Scientific SelectScreen (plus Nanosyn / Reaction Biology for CDK/cyclin lines)
Summary of the method: as §1

ITK = biological target: T16, ITK (Homo sapiens, UniProt Q08881)
T16 construct: purchased Thermo Fisher Scientific SelectScreen (plus Nanosyn / Reaction Biology for CDK/cyclin lines)
Summary of the method: as §1

KSR2 = biological target: T17, KSR2 (Homo sapiens, UniProt Q6VAB6)
T17 construct: purchased Thermo Fisher Scientific SelectScreen (plus Nanosyn / Reaction Biology for CDK/cyclin lines)
Summary of the method: as §1

MAPK1 (ERK2) = biological target: T18, MAPK1 (ERK2) (Homo sapiens, UniProt P28482)
T18 construct: purchased Thermo Fisher Scientific SelectScreen (plus Nanosyn / Reaction Biology for CDK/cyclin lines)
Summary of the method: as §1

MAPK13 (p38 delta) = biological target: T19, MAPK13 (p38 delta) (Homo sapiens, UniProt O15264)
T19 construct: purchased Thermo Fisher Scientific SelectScreen (plus Nanosyn / Reaction Biology for CDK/cyclin lines)
Summary of the method: as §1

MAPK7 (ERK5) = biological target: T20, MAPK7 (ERK5) (Homo sapiens, UniProt Q13164)
T20 construct: purchased Thermo Fisher Scientific SelectScreen (plus Nanosyn / Reaction Biology for CDK/cyclin lines)
Summary of the method: as §1

MAPK9 (JNK2) = biological target: T21, MAPK9 (JNK2) (Homo sapiens, UniProt P45984)
T21 construct: purchased Thermo Fisher Scientific SelectScreen (plus Nanosyn / Reaction Biology for CDK/cyclin lines)
T21 sequence (P45984 whole entry): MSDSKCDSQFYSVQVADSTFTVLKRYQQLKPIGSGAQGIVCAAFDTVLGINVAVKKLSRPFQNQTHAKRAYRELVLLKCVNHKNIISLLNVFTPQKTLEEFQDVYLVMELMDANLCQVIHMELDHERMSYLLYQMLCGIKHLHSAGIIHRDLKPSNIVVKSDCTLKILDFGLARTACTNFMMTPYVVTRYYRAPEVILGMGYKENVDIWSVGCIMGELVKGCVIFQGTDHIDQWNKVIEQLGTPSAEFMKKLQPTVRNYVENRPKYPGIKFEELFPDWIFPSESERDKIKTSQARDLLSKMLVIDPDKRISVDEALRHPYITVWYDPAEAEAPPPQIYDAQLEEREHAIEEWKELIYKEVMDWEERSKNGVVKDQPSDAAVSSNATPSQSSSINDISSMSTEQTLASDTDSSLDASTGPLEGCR
Summary of the method: as §1

MARK4 = biological target: T22, MARK4 (Homo sapiens, UniProt Q96L34)
T22 construct: purchased Thermo Fisher Scientific SelectScreen (plus Nanosyn / Reaction Biology for CDK/cyclin lines)
Summary of the method: as §1

NEK4 = biological target: T23, NEK4 (Homo sapiens, UniProt P51957)
T23 construct: purchased Thermo Fisher Scientific SelectScreen (plus Nanosyn / Reaction Biology for CDK/cyclin lines)
Summary of the method: as §1

NTRK3 (TRKC) = biological target: T24, NTRK3 (TRKC) (Homo sapiens, UniProt Q16288)
T24 construct: purchased Thermo Fisher Scientific SelectScreen (plus Nanosyn / Reaction Biology for CDK/cyclin lines)
Summary of the method: as §1

PASK = biological target: T25, PASK (Homo sapiens, UniProt Q96RG2)
T25 construct: purchased Thermo Fisher Scientific SelectScreen (plus Nanosyn / Reaction Biology for CDK/cyclin lines)
T25 sequence (Q96RG2 whole entry): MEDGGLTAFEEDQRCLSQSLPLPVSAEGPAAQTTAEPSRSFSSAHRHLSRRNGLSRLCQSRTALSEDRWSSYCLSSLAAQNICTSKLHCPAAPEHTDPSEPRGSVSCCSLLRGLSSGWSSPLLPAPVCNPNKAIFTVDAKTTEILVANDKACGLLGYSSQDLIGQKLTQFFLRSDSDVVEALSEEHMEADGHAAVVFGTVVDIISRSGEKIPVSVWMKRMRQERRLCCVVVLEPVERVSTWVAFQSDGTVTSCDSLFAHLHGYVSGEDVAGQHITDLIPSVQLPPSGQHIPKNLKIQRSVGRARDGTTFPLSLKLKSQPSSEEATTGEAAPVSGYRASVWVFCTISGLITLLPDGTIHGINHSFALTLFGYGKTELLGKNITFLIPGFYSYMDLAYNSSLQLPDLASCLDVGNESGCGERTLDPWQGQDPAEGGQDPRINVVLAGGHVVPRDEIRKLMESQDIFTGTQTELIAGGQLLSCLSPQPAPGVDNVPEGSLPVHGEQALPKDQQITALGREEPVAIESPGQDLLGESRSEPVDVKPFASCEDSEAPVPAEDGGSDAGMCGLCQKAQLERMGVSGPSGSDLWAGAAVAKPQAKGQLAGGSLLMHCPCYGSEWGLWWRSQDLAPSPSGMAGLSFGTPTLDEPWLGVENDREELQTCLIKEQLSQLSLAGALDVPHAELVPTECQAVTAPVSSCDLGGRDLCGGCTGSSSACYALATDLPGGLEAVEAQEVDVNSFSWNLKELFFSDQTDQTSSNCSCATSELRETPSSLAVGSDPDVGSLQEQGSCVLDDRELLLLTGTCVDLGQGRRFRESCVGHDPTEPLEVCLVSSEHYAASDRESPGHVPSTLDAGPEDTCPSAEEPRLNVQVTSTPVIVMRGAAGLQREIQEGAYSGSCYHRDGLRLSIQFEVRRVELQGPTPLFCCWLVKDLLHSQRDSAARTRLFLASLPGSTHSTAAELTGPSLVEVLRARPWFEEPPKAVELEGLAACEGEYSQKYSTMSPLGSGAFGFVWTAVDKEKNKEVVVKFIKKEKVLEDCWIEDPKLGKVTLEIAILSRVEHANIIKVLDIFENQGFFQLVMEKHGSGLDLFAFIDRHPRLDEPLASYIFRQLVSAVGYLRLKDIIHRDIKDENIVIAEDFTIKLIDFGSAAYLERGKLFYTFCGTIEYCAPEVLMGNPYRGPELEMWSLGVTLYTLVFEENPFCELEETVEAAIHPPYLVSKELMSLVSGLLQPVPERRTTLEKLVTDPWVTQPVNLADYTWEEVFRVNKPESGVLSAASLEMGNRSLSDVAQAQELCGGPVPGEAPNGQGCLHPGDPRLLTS
Summary of the method: as §1

PDGFRA V561D = biological target: T26, PDGFRA V561D (Homo sapiens, UniProt P16234, V561D)
T26 construct: purchased Thermo Fisher Scientific SelectScreen (plus Nanosyn / Reaction Biology for CDK/cyclin lines)
T26 sequence (P16234 24-1089 V561D): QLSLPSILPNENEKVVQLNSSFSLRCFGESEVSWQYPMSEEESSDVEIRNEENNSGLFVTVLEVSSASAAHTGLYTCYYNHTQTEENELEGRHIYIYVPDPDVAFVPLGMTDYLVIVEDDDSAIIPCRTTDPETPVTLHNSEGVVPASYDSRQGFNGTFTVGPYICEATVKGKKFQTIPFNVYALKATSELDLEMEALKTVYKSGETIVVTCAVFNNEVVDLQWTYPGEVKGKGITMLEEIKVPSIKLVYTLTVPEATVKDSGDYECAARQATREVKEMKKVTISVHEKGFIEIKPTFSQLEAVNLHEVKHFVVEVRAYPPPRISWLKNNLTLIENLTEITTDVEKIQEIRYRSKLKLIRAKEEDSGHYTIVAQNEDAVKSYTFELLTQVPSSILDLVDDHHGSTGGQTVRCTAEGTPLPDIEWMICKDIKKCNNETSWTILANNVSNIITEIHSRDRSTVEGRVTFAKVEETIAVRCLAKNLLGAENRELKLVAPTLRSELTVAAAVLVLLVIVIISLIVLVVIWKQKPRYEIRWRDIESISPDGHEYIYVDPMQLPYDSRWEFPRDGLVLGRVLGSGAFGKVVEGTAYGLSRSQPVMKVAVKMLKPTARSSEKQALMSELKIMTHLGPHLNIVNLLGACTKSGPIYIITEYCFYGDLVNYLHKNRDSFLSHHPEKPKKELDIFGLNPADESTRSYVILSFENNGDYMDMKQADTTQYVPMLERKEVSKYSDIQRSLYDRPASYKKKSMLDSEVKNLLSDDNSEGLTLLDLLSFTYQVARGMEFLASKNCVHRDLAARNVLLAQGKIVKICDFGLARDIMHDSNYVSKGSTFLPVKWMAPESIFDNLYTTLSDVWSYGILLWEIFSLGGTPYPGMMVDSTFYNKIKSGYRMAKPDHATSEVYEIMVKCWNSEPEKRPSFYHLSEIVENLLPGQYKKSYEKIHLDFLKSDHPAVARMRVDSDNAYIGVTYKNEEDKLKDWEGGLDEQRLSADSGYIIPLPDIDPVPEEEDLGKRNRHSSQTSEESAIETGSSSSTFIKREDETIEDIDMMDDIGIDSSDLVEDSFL
Summary of the method: as §1

PDGFRB (PDGFR beta) = biological target: T27, PDGFRB (PDGFR beta) (Homo sapiens, UniProt P09619)
T27 construct: purchased Thermo Fisher Scientific SelectScreen (plus Nanosyn / Reaction Biology for CDK/cyclin lines)
T27 sequence (P09619 33-1106): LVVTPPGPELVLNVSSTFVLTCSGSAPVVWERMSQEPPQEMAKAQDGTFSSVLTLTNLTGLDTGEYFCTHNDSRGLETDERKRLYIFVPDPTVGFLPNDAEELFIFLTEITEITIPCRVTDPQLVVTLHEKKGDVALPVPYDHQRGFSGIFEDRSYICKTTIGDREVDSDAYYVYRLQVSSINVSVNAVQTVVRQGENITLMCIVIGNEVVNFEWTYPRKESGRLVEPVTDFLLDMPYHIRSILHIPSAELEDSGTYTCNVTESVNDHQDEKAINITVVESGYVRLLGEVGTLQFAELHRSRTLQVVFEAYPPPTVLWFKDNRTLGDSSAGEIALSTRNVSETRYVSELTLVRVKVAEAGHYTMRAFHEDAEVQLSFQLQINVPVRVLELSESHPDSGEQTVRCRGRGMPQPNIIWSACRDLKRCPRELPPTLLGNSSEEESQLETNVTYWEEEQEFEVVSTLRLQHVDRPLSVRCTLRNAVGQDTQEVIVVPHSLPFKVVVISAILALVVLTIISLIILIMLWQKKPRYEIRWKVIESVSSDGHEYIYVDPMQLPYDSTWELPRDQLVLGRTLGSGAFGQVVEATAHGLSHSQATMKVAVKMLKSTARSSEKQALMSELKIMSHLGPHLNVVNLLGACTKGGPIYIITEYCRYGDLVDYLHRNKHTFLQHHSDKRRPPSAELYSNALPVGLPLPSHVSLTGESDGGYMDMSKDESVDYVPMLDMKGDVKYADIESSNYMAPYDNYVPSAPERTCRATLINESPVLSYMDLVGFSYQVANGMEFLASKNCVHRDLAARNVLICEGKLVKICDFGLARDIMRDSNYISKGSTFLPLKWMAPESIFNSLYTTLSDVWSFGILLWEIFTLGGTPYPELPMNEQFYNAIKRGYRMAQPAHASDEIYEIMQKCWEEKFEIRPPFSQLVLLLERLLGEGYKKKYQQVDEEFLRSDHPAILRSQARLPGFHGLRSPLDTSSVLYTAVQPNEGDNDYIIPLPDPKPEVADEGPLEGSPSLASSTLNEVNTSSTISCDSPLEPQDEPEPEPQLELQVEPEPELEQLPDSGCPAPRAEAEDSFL
Summary of the method: as §1

PIM2 = biological target: T28, PIM2 (Homo sapiens, UniProt Q9P1W9)
T28 construct: purchased Thermo Fisher Scientific SelectScreen (plus Nanosyn / Reaction Biology for CDK/cyclin lines)
Summary of the method: as §1

PRKACA (PKA) = biological target: T29, PRKACA (PKA) (Homo sapiens, UniProt P17612)
T29 construct: purchased Thermo Fisher Scientific SelectScreen (plus Nanosyn / Reaction Biology for CDK/cyclin lines)
Summary of the method: as §1

PRKCB1 (PKC beta I) = biological target: T30, PRKCB1 (PKC beta I) (Homo sapiens, UniProt P05771)
T30 construct: purchased Thermo Fisher Scientific SelectScreen (plus Nanosyn / Reaction Biology for CDK/cyclin lines)
Summary of the method: as §1

PRKCE (PKC epsilon) = biological target: T31, PRKCE (PKC epsilon) (Homo sapiens, UniProt Q02156)
T31 construct: purchased Thermo Fisher Scientific SelectScreen (plus Nanosyn / Reaction Biology for CDK/cyclin lines)
T31 sequence (Q02156 whole entry): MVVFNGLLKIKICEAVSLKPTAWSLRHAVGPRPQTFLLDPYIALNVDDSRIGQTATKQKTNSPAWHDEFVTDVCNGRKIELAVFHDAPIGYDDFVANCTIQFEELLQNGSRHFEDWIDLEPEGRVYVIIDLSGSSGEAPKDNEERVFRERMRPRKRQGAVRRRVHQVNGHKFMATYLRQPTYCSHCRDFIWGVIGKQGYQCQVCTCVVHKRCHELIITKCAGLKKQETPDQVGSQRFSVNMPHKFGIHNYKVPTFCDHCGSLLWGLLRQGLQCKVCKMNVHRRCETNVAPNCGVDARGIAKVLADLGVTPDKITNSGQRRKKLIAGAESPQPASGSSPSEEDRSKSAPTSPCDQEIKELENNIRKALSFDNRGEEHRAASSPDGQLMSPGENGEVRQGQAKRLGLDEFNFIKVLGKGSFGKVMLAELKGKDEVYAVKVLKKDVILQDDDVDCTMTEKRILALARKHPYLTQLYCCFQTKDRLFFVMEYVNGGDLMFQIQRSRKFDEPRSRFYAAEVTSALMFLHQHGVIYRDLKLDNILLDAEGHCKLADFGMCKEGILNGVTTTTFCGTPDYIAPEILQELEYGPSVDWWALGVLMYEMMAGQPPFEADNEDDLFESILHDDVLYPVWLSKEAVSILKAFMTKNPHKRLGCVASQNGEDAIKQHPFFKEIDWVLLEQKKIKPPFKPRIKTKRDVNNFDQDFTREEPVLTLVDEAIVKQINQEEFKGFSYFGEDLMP
Summary of the method: as §1

PRKX = biological target: T32, PRKX (Homo sapiens, UniProt P51817)
T32 construct: purchased Thermo Fisher Scientific SelectScreen (plus Nanosyn / Reaction Biology for CDK/cyclin lines)
Summary of the method: as §1

RET Y791F = biological target: T33, RET Y791F (Homo sapiens, UniProt P07949, Y791F)
T33 construct: purchased Thermo Fisher Scientific SelectScreen (plus Nanosyn / Reaction Biology for CDK/cyclin lines)
Summary of the method: as §1

SYK = biological target: T34, SYK (Homo sapiens, UniProt P43405)
T34 construct: purchased Thermo Fisher Scientific SelectScreen (plus Nanosyn / Reaction Biology for CDK/cyclin lines)
Summary of the method: as §1

TAOK2 (TAO1) = biological target: T35, TAOK2 (TAO1) (Homo sapiens, UniProt Q9UL54)
T35 construct: purchased Thermo Fisher Scientific SelectScreen (plus Nanosyn / Reaction Biology for CDK/cyclin lines)
Summary of the method: as §1

TYRO3 (RSE) = biological target: T36, TYRO3 (RSE) (Homo sapiens, UniProt Q06418)
T36 construct: purchased Thermo Fisher Scientific SelectScreen (plus Nanosyn / Reaction Biology for CDK/cyclin lines)
Summary of the method: as §1

Work on `NS(=O)(=O)c1ccc(Nc2ncc3cc4n(c3n2)C2(CCCCC2)C(=O)NN4)cc1` [INX-315] yielded an inhibition at 0.1 µM (AMPK (A2/B2/G3)) of 32%, an inhibition at 0.1 µM (AXL) of 17% and an inhibition at 0.1 µM (BRSK1 (SAD1)) of 16%. For the same compound, the inhibition at 0.1 µM (CAMK1D (CaMKI delta)) was 1%, the inhibition at 0.1 µM (CAMK4 (CaMKIV)) was 0% and the inhibition at 0.1 µM (CLK1) was 5%. It also gave an inhibition at 0.1 µM (CLK2) of 8%, an inhibition at 0.1 µM (CSNK2A1 (CK2 alpha 1)) of 6% and an inhibition at 0.1 µM (EGFR (ErbB1) G719C) of 0%. For the same compound, the inhibition at 0.1 µM (FGFR3) was -3%, the inhibition at 0.1 µM (FGFR3 V555M) was 21% and the inhibition at 0.1 µM (FLT3 D835Y) was 31%. The inhibition at 0.1 µM (GRK6) was 30%, the inhibition at 0.1 µM (GSK3A (GSK3 alpha)) was 11% and the inhibition at 0.1 µM (INSRR (IRR)) was 3%. The inhibition at 0.1 µM (ITK) was 5%, the inhibition at 0.1 µM (KSR2) was 7% and the inhibition at 0.1 µM (MAPK1 (ERK2)) was 4%. The inhibition at 0.1 µM (MAPK13 (p38 delta)) was 5%, the inhibition at 0.1 µM (MAPK7 (ERK5)) was 5% and the inhibition at 0.1 µM (MAPK9 (JNK2)) was -1%. For the same compound, the inhibition at 0.1 µM (MARK4) was 8%, the inhibition at 0.1 µM (NEK4) was 15% and the inhibition at 0.1 µM (NTRK3 (TRKC)) was 84%. For the same compound, the inhibition at 0.1 µM (PASK) was 2%, the inhibition at 0.1 µM (PDGFRA V561D) was 53% and the inhibition at 0.1 µM (PDGFRB (PDGFR beta)) was 25%. For the same compound, the inhibition at 0.1 µM (PIM2) was 5%, the inhibition at 0.1 µM (PRKACA (PKA)) was 4% and the inhibition at 0.1 µM (PRKCB1 (PKC beta I)) was 12%. For the same compound, the inhibition at 0.1 µM (PRKCE (PKC epsilon)) was 3%, the inhibition at 0.1 µM (PRKX) was 3% and the inhibition at 0.1 µM (RET Y791F) was 50%. The inhibition at 0.1 µM (SYK) was 8%, the inhibition at 0.1 µM (TAOK2 (TAO1)) was 10% and the inhibition at 0.1 µM (TYRO3 (RSE)) was 14%.
